≈ marks a conversion by molar mass, not a printed value. Where two headings read alike, the source gives them in different places.
Assays:
P388 Leukemia = assay: Survival of P388 leukemia bearing mice; type: in vivo
Description: (§1) The effect of a chalcone derivative of structure 1 to control the growth of tumor tissue can be assessed in standard animal tumor models, for example, in the following animal tumor modes: (a) L1210 leukemia in mice, (b) EMT6 tumor in Balb/C mice, (c) 7,12-dimethylbenzanthracene-induced (DMBA-induced) mammary tumor in rats, and (d) Morris 7288C or 5123 hepatoma in Buffalo rats.
(A) Effect of α-methyl-4-Dimethylamino-2',5'-dimethoxychalcone
on the Survival of P388 Leukemia Bearing Mice
1 × 10^5 P388 leukemia cells/animal were inoculated (i.p.) on
day zero. Compound was suspended in 5% polyvinylpyrrolidone (PVP) and was
administered (i.p.) once daily from day 1-9. The survival of the animals
was noted and the average survival was determined.

B16 Melanoma [1] = assay: Growth of B16 melanoma in mice (tumor weight); type: in vivo; details: for TUMOR GROWTH (Mean ± S.E., n = 10): tumors weighed day 18
Description: as §1
(§2) (B) Effect of α-methyl-4-Dimethylamino-2',5'-dimethoxychalcone On
(§3) the Growth and Survival of B16 Melanoma Bearing Mice
(§4) 1 × 10^5 B16 melanoma cells/animal were injected (s.c.) or
(§5) (i.p.)? on day 0. Compounds suspended in 5 percent polyvinylpyrrolidone
(§6) (PVP) were administered once daily (i.p. ) from day 1-15. For tumor growt
studies the animals were sacrificed on day 18, the tumors were excised,
and weighed. For survival studies the survival days of each animal was […]

B16 Melanoma [2] = assay: Survival of B16 melanoma bearing mice; type: in vivo
Description: as §1, §2, §3, §4, §5, §6
and weighed. For survival studies the survival days of each animal was
noted and average survival was determined.

L1210 Leukemia = assay: Survival of L1210 leukemia in mice; type: in vivo
Description: as §1
(C) Effect of α-methyl-4-Dimethylamino-2',5'-dimethoxychalcone
and Other Mitotic Inhibitors on the Survival of L1210 Leukemia in
1 × 10^5 leukemic cells/animal were inoculated (i.p.) on day
zero. The compounds were suspended or dissolved in 5% polyvinylpyrrolidon
(PVP) and administered once daily from day 1-9 (i.p.). The survival of th
animals was noted and average survival was determined.

[3] = system: Human Choriotrophoblast Tumor (JAr); assay: Growth of human choriotrophoblast tumor (JAr) in athymic mice; type: in vivo
Description: as §1
(D) Effect of α-methyl-4-Dimethylamino-2',5'-
dimethoxychalcone On the Growth of Human
Choriotrophoblast Tumor (JAr) In Athymic Mice
JAr cells (1.5 × 10^6 cells/animal) were injected (s.c.) on day
zero. The compound, 4dimethylamino-2',5dimethoxychalcone, was suspended i
5 per cent polyvinylpyrrolidone (PVP) and administered (i.p.) once daily
as indicated. At the end of 12 days the animals were sacrificed, tumors

HeLa cells [4] = assay: Mitotic accumulation (mitotic arrest) of HeLa cells; type: cell-based; details: Homo sapiens, read-out: MITOTIC ARREST Minimum Effectice Concentration
Method: Exponentially growing human carcinoma (HeLa) cells are plated at a densit
of 1 × 10^4 cells/well in a 24 well plate. The compounds were
dissolved in dimethylsulfoxide and diluted with complete medium. The cell
were innoculated with the medium containing the test compound either for
hours or 1 hour. For the 1 hour test, the cells were washed twice and
further grown for 18 hours in the presence of drug free medium. The
mitotic cells in the supernatent were collected and were pooled with the
trypsinized cells and cytopreps were made on slides using a
cytocentrifuge. The slides were fixed with Carnoy's solution, stained wit
acetoorcein, and the mitotic index was determined.

HeLa cells [5] = assay: Growth inhibition of HeLa cells; type: cell-based; details: Homo sapiens, 72 h, read-out: GROWTH INHIBITION IC50
Method: For growth inhibition studies, exponentially growing HeLa cells were
incubated at a density of 1 × 10^5 cells/35 mm dish with a
number of dilutions of the test compound in the medium. The plates were
incubated at 37° C. in a CO2 incubation. At the end of 72
hours the cells were collected by trypinization and counted and the […]

[6] = Experimental Allergic Encephalomyelitis (EAE) in rats; type: in vivo, rats (Lewis strain); details: 25.0 mg/kg s.c. once every other day, day 1 through 10
Description: The compounds of structure 1 inhibit the destruction of myelin sheath surrounding the axons of the central nervous system. This myelin destruction is characteristic in those individuals suffering from multiple sclerosis. By preventing the destruction of myelin in multiple sclerosis patients, the compounds of structure 1 will prevent or reduce the progressive nature of the disease, prevent or increase the length of time between the recurrent episodes of the disease, and prevent or suppress the formation of the scarlike, multiple sclerotic plaques characteristic of the disease. […] This myelin brings about an immune response in the individual in which the myelin sheath is destroyed. EAE is an experimental model of multiple sclerosis.
Effect of α-methyl-4-dimethylamino-2',5'-dimethoxychalcone on
Experimental Allergic Encephalomyelitis (EAE) In Rats
EAE was induced in rats as described by Rosenthal and Nagra, Proc. Soc.
Exp. Biol. Med. 125, 149 (1967). Lewis strain rats ranging in weight from
100-200 g were sensitized with encephalitogenic emulsion consisting of
homogenized spinal cord in complete Freund's adjuvant. The test compound
and hydrocortisone (HC) were administered in polyvinylpyrrolidone vehicle
The test compound was administered i.p. once daily from day 1 through day
10. […]
10. The incidence of paralysis was recorded and mean paralysis time was […]

[7] = 25 mg/kg i.p. once daily day 1-9
[8] = 50 mg/kg i.p. once daily day 1-9
[9] = 12.5 mg/kg i.p. once daily day 1-15
[10] = 25 mg/kg i.p. once daily day 1-15
[11] = 50 mg/kg i.p. once daily day 1-15
[12] = 6.25 mg/kg i.p. once daily day 1-9
[13] = 12.5 mg/kg i.p. once daily day 1-9
[14] = 25.0 mg/kg i.p. once daily day 1-9
[15] = 50.0 mg/kg i.p. once daily day 1-9
[16] = 25 mg/kg i.p. once daily, day 1-11
[17] = 25 mg/kg i.p. once daily, day 7-11
[18] = 50 mg/kg i.p. once daily, day 1-11
[19] = 50 mg/kg i.p. once daily, day 7-11
[20] = 0.2 mg/kg i.p. once daily day 1-15
[21] = 0.20 mg/kg i.p. once daily day 1-9

## COc1ccc(OC)c(C(=O)C(C)=Cc2ccc(N(C)C)cc2)c1 [1-(2,5-dimethoxyphenyl)-3-[4-(dimethylamino)phenyl]-2-methyl-2-propen-1-one]
P388 Leukemia; [7]
  PERCENT T/C (survival): 142%
  SURVIVAL TIME (Mean ± S.E., n = 10): 16.0 ± 1.5 days
P388 Leukemia; [8]
  PERCENT T/C (survival): 141%
  SURVIVAL TIME (Mean ± S.E., n = 10): 15.8 ± 0.5 days
B16 Melanoma [1]; [9]
  PERCENT INHIBITION (tumor growth): 30%
  TUMOR GROWTH (Mean ± S.E., n = 10): 4.66 ± 0.56 g
B16 Melanoma [1]; [10]
  PERCENT INHIBITION (tumor growth): 32%
  TUMOR GROWTH (Mean ± S.E., n = 10): 4.5 ± 0.70 g
B16 Melanoma [1]; [11]
  PERCENT INHIBITION (tumor growth): 45%
  TUMOR GROWTH (Mean ± S.E., n = 10): 3.66 ± 0.83 g
B16 Melanoma [2]; [9]
  PERCENT T/C (survival): 146%
  SURVIVAL (MEAN ± S.E., n = 10): 20.4 ± 1.5 days
B16 Melanoma [2]; [10]
  PERCENT T/C (survival): 183%
  SURVIVAL (MEAN ± S.E., n = 10): 25.6 ± 4.8 days
L1210 Leukemia; [12]
  PERCENT T/C (survival): 126%
  SURVIVAL TIME (Mean ± S.E., n = 20): 8.8 ± 0.2 days
L1210 Leukemia; [13]
  PERCENT T/C (survival): 137%
  SURVIVAL TIME (Mean ± S.E., n = 20): 9.6 ± 0.3 days
L1210 Leukemia; [14]
  PERCENT T/C (survival): 146%
  SURVIVAL TIME (Mean ± S.E., n = 20): 10.2 ± 0.2 days
L1210 Leukemia; [15]
  PERCENT T/C (survival): 154%
  SURVIVAL TIME (Mean ± S.E., n = 20): 10.8 ± 0.4 days
[3]; [16]
  PERCENT INHIBITION (tumor weight): 29%
  TUMOR WEIGHT (Means ± S.E., n = 6): 2.86 ± 0.38 g
[3]; [17]
  PERCENT INHIBITION (tumor weight): 21%
  TUMOR WEIGHT (Means ± S.E., n = 6): 3.19 ± 0.61 g
[3]; [18]
  PERCENT INHIBITION (tumor weight): 65%
  TUMOR WEIGHT (Means ± S.E., n = 6): 1.41 ± 0.32 g
[3]; [19]
  PERCENT INHIBITION (tumor weight): 31%
  TUMOR WEIGHT (Means ± S.E., n = 6): 2.70 ± 0.36 g
HeLa cells [4]; 1 hour, then washed and grown 18 hours in drug free medium
  minimal effective concentration: 0.06 µg/mL
HeLa cells [4]; 6 hours
  minimal effective concentration: 0.0038 µg/mL

## CC[C@]1(O)C[C@@H]2CN(CCc3c([nH]c4ccccc34)[C@@](C(=O)OC)(c3cc4c(cc3OC)N(C)[C@H]3[C@@](O)(C(=O)OC)[C@H](OC(C)=O)[C@]5(CC)C=CCN6CC[C@]43[C@@H]65)C2)C1 [VINBLASTINE, vinblastine, reference compound]
B16 Melanoma [2]; [20]
  PERCENT T/C (survival): 180%
  SURVIVAL (MEAN ± S.E., n = 10): 25.2 ± 2.3 days
L1210 Leukemia; [21]
  PERCENT T/C (survival): 140%
  SURVIVAL TIME (Mean ± S.E., n = 20): 9.8 ± 0.4 days
HeLa cells [4]; 6 h
  minimal effective concentration: 0.0015 µg/mL
HeLa cells [5]
  IC50: 0.015 µg/mL (≈ 0.0185 µM)

## CC[C@]1(O)C[C@H]2CN(CCc3c([nH]c4ccccc34)[C@@](C(=O)OC)(c3cc4c(cc3OC)N(C=O)[C@H]3[C@@](O)(C(=O)OC)[C@H](OC(C)=O)[C@]5(CC)C=CCN6CC[C@]43[C@@H]65)C2)C1 [VINCRISTINE, vincristine, reference compound]
L1210 Leukemia; [21]
  PERCENT T/C (survival): 146%
  SURVIVAL TIME (Mean ± S.E., n = 20): 10.2 ± 0.4 days

## C[C@]12CCC(=O)C=C1CC[C@@H]1[C@@H]2[C@@H](O)C[C@@]2(C)[C@H]1CC[C@]2(O)C(=O)CO [HYDROCORTISONE, hydrocortisone]
[6]
  PERCENT INCIDENCE OF PARALYSIS: 74%
[6]; significant at p < 0.01
  PARALYSIS TIME (Mean ± S.E.): 11.0 ± 0.28 days

Reference: patent US4904697A, “Controlling the growth of certain tumor tissue with chalcone derivatives” (Merrell Dow Pharmaceuticals Inc., priority 1987, dated 1990)
